For orientation: inhibition means how much of the control response was suppressed. A lower inhibition goes with a weak effect. What is called Ki is a dissociation constant, usually derived from enzyme kinetics or from competition with a known ligand. Lower therefore signals tighter binding.

Molecules are shown by their SMILES.

Among the data in ChEMBL document CHEMBL1132725, “Evaluation of new L-thiocitrulline derivatives as inhibitors of nitric oxide synthase” (Bioorg Med Chem Lett, 2000) are inhibition and Ki values, retold here.

Assay [1] addresses T1, Nitric oxide synthase 3 (Bos taurus) (UniProt P29473).
T1 sequence (whole entry): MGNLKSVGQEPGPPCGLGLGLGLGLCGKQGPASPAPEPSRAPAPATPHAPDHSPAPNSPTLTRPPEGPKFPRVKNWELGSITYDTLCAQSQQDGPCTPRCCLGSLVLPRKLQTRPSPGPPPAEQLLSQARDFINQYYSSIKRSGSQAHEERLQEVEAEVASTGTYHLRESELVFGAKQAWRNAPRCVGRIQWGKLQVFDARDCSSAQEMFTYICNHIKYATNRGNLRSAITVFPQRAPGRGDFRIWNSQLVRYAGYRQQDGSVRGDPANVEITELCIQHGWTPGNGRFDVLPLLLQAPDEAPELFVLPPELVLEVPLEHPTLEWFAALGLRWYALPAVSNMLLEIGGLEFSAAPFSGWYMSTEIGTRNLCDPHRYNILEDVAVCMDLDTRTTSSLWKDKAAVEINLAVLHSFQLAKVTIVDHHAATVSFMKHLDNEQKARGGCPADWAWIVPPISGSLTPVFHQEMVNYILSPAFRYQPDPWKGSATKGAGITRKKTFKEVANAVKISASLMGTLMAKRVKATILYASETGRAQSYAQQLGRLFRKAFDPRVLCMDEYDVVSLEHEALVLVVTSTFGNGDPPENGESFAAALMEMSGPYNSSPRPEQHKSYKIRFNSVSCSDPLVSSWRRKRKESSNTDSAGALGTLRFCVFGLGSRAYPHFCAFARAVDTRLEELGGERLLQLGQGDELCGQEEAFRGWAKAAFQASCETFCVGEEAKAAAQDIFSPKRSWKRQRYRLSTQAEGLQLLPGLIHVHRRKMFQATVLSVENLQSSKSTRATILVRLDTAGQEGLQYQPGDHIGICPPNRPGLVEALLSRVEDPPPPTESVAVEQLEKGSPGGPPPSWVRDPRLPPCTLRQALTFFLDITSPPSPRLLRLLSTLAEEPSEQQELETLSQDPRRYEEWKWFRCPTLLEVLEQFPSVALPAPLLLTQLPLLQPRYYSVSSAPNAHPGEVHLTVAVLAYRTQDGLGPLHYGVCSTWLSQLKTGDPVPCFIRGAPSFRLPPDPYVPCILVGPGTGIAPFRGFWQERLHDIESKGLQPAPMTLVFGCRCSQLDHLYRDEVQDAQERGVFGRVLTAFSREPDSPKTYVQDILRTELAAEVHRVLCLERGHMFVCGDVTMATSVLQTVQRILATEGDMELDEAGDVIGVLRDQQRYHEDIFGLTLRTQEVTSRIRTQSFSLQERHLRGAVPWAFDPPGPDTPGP
The assay is described as follows: Compound was tested for the percent inhibition of nitric oxide synthase (e) using [14C]L-citrulline as radioligand. As to conditions: concentration not given here.

Assay [2] concerns the target T2, Nitric oxide synthase, inducible (Mus musculus) (UniProt P29477).
T2 sequence (whole entry): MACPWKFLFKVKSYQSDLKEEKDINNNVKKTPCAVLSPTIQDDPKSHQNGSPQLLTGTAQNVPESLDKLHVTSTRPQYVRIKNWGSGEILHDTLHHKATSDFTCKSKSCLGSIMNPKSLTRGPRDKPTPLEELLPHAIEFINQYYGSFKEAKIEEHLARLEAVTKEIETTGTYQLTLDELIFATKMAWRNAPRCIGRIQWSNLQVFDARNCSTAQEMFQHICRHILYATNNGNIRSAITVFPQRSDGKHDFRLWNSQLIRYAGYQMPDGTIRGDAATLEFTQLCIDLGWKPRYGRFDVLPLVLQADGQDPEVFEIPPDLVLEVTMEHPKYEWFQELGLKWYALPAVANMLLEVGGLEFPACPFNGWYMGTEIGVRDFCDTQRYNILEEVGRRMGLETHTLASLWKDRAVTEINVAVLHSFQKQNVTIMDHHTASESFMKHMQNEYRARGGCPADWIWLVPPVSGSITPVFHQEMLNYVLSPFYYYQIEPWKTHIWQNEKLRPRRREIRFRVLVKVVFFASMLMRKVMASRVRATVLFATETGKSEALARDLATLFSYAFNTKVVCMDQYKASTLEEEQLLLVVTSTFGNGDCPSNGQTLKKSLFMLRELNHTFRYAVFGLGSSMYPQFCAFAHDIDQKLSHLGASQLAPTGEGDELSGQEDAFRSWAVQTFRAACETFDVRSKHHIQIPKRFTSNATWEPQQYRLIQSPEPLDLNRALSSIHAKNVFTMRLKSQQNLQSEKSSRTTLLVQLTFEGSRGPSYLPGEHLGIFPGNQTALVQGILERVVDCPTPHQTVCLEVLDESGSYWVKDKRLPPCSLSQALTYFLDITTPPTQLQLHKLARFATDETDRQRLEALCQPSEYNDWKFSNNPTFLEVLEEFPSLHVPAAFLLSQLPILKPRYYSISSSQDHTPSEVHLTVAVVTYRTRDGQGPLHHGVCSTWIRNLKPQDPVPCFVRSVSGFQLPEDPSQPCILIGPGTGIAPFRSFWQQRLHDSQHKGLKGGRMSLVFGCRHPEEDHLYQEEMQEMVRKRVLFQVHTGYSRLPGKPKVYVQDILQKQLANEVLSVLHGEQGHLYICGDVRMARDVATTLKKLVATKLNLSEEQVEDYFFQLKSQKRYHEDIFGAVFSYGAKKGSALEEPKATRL
The assay is described as follows: Compound was tested for the percent inhibition of nitric oxide synthase (i) using [14C]L-citrulline as radioligand. As to conditions: concentration not given here.

Assay [3] deals with Nitric oxide synthase 1 (Rattus norvegicus) (UniProt P29476). Description: Compound was tested for the percent inhibition of nitric oxide synthase (n) using [14C]L-citrulline as radioligand. Conditions: concentration not given here.
Nitric oxide synthase 1 (Rattus norvegicus), sequence (P29476 whole entry): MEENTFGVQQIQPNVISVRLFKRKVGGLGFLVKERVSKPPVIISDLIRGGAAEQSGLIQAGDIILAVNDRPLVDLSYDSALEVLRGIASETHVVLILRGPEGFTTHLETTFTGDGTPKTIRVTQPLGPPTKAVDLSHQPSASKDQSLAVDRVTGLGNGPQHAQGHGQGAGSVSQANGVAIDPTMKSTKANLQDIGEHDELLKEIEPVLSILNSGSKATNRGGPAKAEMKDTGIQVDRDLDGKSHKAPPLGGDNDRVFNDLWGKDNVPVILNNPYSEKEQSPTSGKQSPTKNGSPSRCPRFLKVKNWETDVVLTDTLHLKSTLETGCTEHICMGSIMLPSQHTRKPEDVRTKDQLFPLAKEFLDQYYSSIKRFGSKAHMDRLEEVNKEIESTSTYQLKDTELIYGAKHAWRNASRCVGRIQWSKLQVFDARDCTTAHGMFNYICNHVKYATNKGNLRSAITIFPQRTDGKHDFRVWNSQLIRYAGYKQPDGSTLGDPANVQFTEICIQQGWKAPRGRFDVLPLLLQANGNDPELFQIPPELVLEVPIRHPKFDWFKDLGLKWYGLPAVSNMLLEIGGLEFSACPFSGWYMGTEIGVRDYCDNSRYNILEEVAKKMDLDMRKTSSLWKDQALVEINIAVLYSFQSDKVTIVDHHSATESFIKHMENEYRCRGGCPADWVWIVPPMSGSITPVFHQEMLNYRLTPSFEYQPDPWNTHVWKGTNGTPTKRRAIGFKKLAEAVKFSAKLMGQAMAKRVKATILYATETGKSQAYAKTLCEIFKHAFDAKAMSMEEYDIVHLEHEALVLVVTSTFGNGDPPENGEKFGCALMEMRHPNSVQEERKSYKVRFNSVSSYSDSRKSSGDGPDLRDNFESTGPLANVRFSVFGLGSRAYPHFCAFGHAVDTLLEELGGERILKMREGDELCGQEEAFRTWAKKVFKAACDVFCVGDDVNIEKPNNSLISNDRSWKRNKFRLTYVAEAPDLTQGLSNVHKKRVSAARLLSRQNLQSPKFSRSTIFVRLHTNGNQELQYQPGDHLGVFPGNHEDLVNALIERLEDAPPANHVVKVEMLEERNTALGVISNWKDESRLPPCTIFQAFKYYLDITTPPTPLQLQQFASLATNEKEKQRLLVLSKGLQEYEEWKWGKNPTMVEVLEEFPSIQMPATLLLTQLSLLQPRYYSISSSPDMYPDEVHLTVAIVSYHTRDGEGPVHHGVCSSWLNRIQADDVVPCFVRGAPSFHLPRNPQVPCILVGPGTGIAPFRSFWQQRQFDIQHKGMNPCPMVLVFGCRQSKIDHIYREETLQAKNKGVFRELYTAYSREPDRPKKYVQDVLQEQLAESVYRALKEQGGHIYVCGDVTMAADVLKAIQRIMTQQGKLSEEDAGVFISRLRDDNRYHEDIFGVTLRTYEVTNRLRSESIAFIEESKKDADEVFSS
Assay [4] deals with T3, Nitric oxide synthase, inducible (Mus musculus, UniProt P29477).
T3 sequence (P29477 whole entry): T2 sequence (whole entry)
Description: Compound was tested for the competitive inhibition of nitric oxide synthase (i) using [14C]L-citrulline as radioligand. value ranges from 3.6-9 uM.

In another assay the target is Nitric oxide synthase 1 (Rattus norvegicus, UniProt P29476). The assay is described as follows: Compound was tested for the competitive inhibition of nitric oxide synthase (n) using [14C]L-citrulline as radioligand.; value ranges from 0.06-2 uM.
Nitric oxide synthase 1, sequence (P29476 whole entry): as above

Regarding `CSC(=NCCC[C@H](N)C(=O)O)SC`, the inhibition in assay [1] came to 46%; in assay [2] it was 56%; in assay [3], 39%.
Turning to `CS/C(S)=N/CCC[C@H](N)C(=O)O`, the results for the inhibition in assay [1], in assay [2] and in assay [3] were 25%, 54% and 27%, respectively.
Regarding `N/C(S)=N/CCC[C@H](N)C(=O)O`, the inhibition in assay [1], in assay [2] and in assay [3] was over 99% throughout. In addition, the values for the inhibition constant Ki (in assay [4]; on Nitric oxide synthase 1) were 3600 nM and 60 nM, respectively.
For the compound `CCOP(=S)(NCCC[C@H](N)C(=O)O)OCC`, in assay [2], the inhibition was under 10%.
